# Like-named read-outs stand apart in the source and are kept apart here.
# Tests used:
# [1] = tested on: A2780 ovarian carcinoma cells; assay type: cell-based, human; settings: A2780, 1 h of treatment; read-out: IC50 ± SD, antiadhesive effect to vitronectin
# Protocol: (§1) A2780 human ovarian carcinoma and PC3 prostate carcinoma cells were grown in medium culture RPMI 1640 containing 10% fetal bovine serum and 50 μg/ml gentamycin sulfate. Cells were maintained in a 37° C. incubator with saturated humidity and an atmosphere of 95% air and 5% CO2. A2780 tumour cell line expresses high levels of αvβ5 integrin, and PC3 low levels of both integrins.
# (§2) In 96-well tissue culture plates, 50 μl/well of a solution of vitronectin (5 μg/ml) were added for 2 h at room temperature. The solutions were removed upsetting the plates. 50 μl/well of a solution 1% BSA were added for 1 h at RT. The plates were washed by addition of 100 μl/well of medium culture RPMI 1640 without fetal calf serum (FCS). The washing was repeated twice. The molecules were added at different concentrations in the range between 0.039 μM and 20 μM. The solutions were prepared by dilution 1:2 in medium culture without FCS. Tumour cells in the flasks were washed in saline solution before to be detached by scraper, by the addition of 5 ml of medium culture without FCS and 1% BSA. Tumour cells were counted after resuspension and added at an appropriate cellular density (40000-50000 cells/well). The plates were incubated for 1 h at 37° C. in humidified incubator with 5% CO2. Then, the solutions were removed upsetting the plates and washed once with 200 μl/well of PBS with Ca^2+ e Mg^2+. Tumour cells were fixed with 100 μl of a solution 4% paraformaldehyde in 0.2 M Sorensen phosphate buffer pH 7.2-7.4 for 10 min at RT The plates were upset and 100 μl of 1% Toluidine Blu solution were added for 10 min at RT The plates were washed twice by immersion in bi-distilled water and then dried at 60° C. in thermostat incubator (Kottermann). 100 μl/well of 1% SDS were added. The plates were kept under stirring for 20 min at RT and were then evaluated by Victor 1420 multilabel counter (Wallac) at 600 nm.
# (§3) The IC50 value as parameter to measure the inhibiting effect of the molecules on tumour cell adhesion to vitronectin was evaluated using “ALLFIT” computer program.
# [2] = tested on: PC3 prostate carcinoma cells; assay type: cell-based, human; settings: PC3, 1 h of treatment; read-out: IC50 ± SD, antiadhesive effect to vitronectin
# Protocol: as §1, §2, §3
# [3] = tested on: PC3 prostate carcinoma cells; assay: Cytotoxicity, sulphorodamine B test (PC3); assay type: cell-based, human; settings: PC3, 72 h of treatment; read-out: IC50 ± SD, cytotoxicity
# Protocol: (§4) To evaluate the effect of the compound on survival cells, the sulphorodamine B test was used. To measure the effects of the compounds on cell growth, PC3 human prostate carcinoma and A2780 human ovarian carcinoma cells were used. A2780 and PC3 tumour cells were grown RPMI 1640 containing 10% fetal bovine serum (GIBCO).
# (§5) Tumour cells were seeded in 96-well tissue culture plates at approximately 10% confluence and were allowed to attach and recover for at least 24 h. Varying concentrations of the drugs were then added to each well to calculate their IC50 value (the concentration which inhibits the 50% of cell survival). The plates were incubated at 37° C. for 72 h. At the end of the treatment, the plates were washed by removal of the supernatant and addition of PBS 3 times. 200 μl PBS and 50 μl of cold 80% trichloroacetic acid (TCA) were added. The plates were incubated on ice for at least 1 h. TCA was removed and the plates were washed 3 times by immersion in distilled-water and dried on paper and at 40° C. for 5 min. Then 200 μl of 0.4% sulphorodamine B in 1% acetic acid were added. The plates were incubated at RT for further 30 min. Sulphorodamine B was removed, the plates were washed by immersion in 1% acetic acid 3 times, then they were dried on paper and at 40° C. for 5 min. Then 200 μl Tris 10 mM were added, the plates were kept under stirring for 20 min. The cell survival was determined by means of optical density using a Multiskan spectrofluorimeter at 540 nm. The amount of cells killed was calculated as the percentage decrease in sulphorodamine B binding compared with control cultures.
# (§6) The IC50 values were calculated with the “ALLFIT” program.
# [4] = tested on: A2780 ovarian carcinoma cells; assay: Cytotoxicity, sulphorodamine B test (A2780); assay type: cell-based, human; settings: A2780, 72 h of treatment; read-out: IC50 ± SD, cytotoxicity
# Protocol: as §4, §5, §6
# [5] = tested on: PC3 prostate ca. xenografted in CD1 nude mice; assay: Antimetastatic activity on bone metastases induced by intracardiac injection of PC3 human prostate carcinoma; assay type: in vivo
# Protocol: Male CD1 nude mice were anesthetized by 4 ml/kg of a mixture (xylazine:ketavet 100) given i.p. PC3 tumour cells were inoculated by intracardiac injection (1×10^5 cells/0.1 ml/mouse) into the heart left ventricle of mice using a 27-gauge needle. Mice were subdivided (11 mice/group) in the following experimental groups and after three days from tumour injection the molecules were administered as described:
# Vehicle (DMSO 10%) i.v. q4d×4.
# To evaluate the antitumour activity of the drug, high-resolution total body radiological analysis was carried out by using Faxitron system. Radiological analysis was carried out 30 days after tumour injection. Body weight recordings were carried out through the study and mortality was noted.
smiles,measurement,setting,value
CC[C@@]1(O)C(=O)OCc2c1cc1n(c2=O)Cc2c-1nc1ccccc1c2C=NOCCNC(=O)OCc1ccc(NC(=O)[C@H](CCCNC(N)=O)NC(=O)[C@H](C)NC(=O)COCCOCCOCC(=O)NCc2ccc(C[C@@H]3NC(=O)[C@@H](Cc4ccccc4)NC(=O)[C@H](CC(=O)O)NC(=O)CNC(=O)[C@H](CCCNC(=N)N)NC3=O)cc2)cc1 [ST3833],IC50,[1],900 ± 50 nM
same,IC50,[2],2100 ± 200 nM
same,IC50,[3],4600 ± 800 nM
same,IC50,[4],95 ± 20 nM
same,BWL % (maximum body weight loss),[5]; 56 mg/10 ml/kg i.v. q4dx4,0%
same,Lethal toxicity (dead/treated animals),[5]; 56 mg/10 ml/kg i.v. q4dx4,0/11
same,MST (median survival time),[5]; 56 mg/10 ml/kg i.v. q4dx4,58 days
same,Incidence of osteolytic lesions (mice with metastases),"[5]; 56 mg/10 ml/kg i.v. q4dx4, 30 days after tumour injection",5/11
same,tolerability,"[5]; 56 mg/kg iv (q4dx4), no reduction of body weight or lethal toxicity",well tolerated
same,"incidence of osteolytic lesions, % of mice","[5]; 56 mg/kg iv q4dx4, vehicle-treated group 91%",45%

# — patent US20110160147A1, “NOVEL DUAL TARGETING A[…]” (priority 2008, published 2011)
